Laboratory results from patent publication US20240270821A1, “GIP/GLP1/GCG TRI-RECEPTOR AGONISTS AND USES THEREOF” (priority 2023, published 2024).
pEC50: −log10 of the molar value. Read-outs that look alike come from different tables or passages of the source. Starred links: 1 amine or outer side, 2 acyl side, 3 side chain; linkers in the order of their positions; H or OH if unused. Non-standard residues stand in square brackets, D forms with d. Groups on a side chain read outwards from the residue. No end group written: not given here. *: point of attachment. C20 diacid = O=C(O)CCCCCCCCCCCCCCCCCCC(=O)*; C18 diacid = O=C(O)CCCCCCCCCCCCCCCCC(=O)*; αMePhe(2-F) = C[C@](N)(Cc1ccccc1F)C(=O)O; γGlu = O=C(O)[C@H](CCC(=O)[*:2])N[*:1]; NMeY = CN[C@@H](Cc1ccc(O)cc1)C(=O)O; αMe4Pal = C[C@](N)(Cc1ccncc1)C(=O)O; αMeY = C[C@](N)(Cc1ccc(O)cc1)C(=O)O; 4Pal = N[C@@H](Cc1ccncc1)C(=O)O; αMeL = CC(C)C[C@](C)(N)C(=O)O; αMeS = C[C@](N)(CO)C(=O)O; Orn = NCCC[C@H](N)C(=O)O; AEEA = NCCOCCOCC(=O)O; Aib = CC(C)(N)C(=O)O

How the values were obtained:
Format in all cases: cell-based
[1] = biological target: T1, hGIPR (Homo sapiens, UniProt P48546); experiment: Functional cAMP activity in the presence of 1% HSA; details: read-out: cAMP Rel EC50, hGIPR
T1 sequence (P48546 22-466): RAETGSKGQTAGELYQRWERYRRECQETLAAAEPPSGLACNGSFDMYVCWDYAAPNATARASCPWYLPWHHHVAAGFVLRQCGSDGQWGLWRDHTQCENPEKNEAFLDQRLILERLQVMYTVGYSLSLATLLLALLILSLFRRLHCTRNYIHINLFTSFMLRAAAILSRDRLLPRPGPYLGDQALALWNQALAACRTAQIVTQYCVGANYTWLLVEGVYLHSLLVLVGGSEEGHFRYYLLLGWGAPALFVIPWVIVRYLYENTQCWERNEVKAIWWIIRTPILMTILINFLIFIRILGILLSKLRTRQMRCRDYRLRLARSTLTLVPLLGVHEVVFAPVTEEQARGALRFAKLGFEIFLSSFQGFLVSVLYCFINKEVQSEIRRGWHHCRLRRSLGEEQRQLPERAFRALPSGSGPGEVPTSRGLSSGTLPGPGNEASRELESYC

[2] = biological target: T2, hGLP-1R (Homo sapiens, UniProt P43220); experiment: Functional cAMP activity in the presence of 1% HSA; details: read-out: cAMP Rel EC50, hGLP-1R
[3] = biological target: human GcgR (Homo sapiens, UniProt P47871); experiment: Functional cAMP activity in the presence of 1% HSA; details: read-out: cAMP Rel EC50, hGcgR
[4] = biological target: T1, hGIPR; experiment: Functional cAMP activation in the presence of 0.1% casein (no HSA); details: read-out: Relative cAMP EC50, hGIPR;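 for Relative cAMP EC50, hGIPR: intracellular cAMP rise after 30 min at 37 °C read by HTRF against a standard curve, scaled between buffer alone (0%) and top control ligand concentration (100%), four-parameter fit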;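 for Relative cAMP EC50, hGLP-1R: intracellular cAMP rise after 30 min at 37 °C read by HTRF, normalized between buffer only (0%) and maximal control ligand (100%), four-parameter variable-slope fit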;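 for Relative cAMP EC50, hGcgR: intracellular cAMP rise after 30 min at 37 °C, read by HTRF against a cAMP standard curve, scaled from buffer only (0%) to maximal control ligand response (100%)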
[5] = biological target: T2, hGLP-1R; experiment: as above; details: read-out: Relative cAMP EC50, hGLP-1R
[6] = biological target: hGcgR (Homo sapiens, UniProt P47871); experiment: as above; details: read-out: Relative cAMP EC50, hGcgR;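 note: intracellular cAMP rise after 30 min at 37 °C, read by HTRF against a cAMP standard curve, scaled from buffer only (0%) to maximal control ligand response (100%)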
[7] = in the presence of 0.1% casein (no HSA), geometric mean

hGcgR, sequence (P47871 26-477): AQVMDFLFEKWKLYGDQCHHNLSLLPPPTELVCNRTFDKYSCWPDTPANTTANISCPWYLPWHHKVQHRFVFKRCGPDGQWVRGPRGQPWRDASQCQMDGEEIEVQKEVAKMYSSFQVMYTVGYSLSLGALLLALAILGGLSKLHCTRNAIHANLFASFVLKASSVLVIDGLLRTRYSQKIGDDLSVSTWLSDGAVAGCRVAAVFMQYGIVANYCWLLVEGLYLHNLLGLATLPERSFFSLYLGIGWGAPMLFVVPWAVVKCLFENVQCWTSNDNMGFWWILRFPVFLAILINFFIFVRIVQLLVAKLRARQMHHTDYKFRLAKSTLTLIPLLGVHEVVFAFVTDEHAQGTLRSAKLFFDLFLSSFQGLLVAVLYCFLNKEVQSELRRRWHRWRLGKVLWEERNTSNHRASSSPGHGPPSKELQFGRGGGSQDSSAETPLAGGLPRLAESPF
human GcgR, sequence (P47871 26-477): as above
T2 sequence (P43220 24-463): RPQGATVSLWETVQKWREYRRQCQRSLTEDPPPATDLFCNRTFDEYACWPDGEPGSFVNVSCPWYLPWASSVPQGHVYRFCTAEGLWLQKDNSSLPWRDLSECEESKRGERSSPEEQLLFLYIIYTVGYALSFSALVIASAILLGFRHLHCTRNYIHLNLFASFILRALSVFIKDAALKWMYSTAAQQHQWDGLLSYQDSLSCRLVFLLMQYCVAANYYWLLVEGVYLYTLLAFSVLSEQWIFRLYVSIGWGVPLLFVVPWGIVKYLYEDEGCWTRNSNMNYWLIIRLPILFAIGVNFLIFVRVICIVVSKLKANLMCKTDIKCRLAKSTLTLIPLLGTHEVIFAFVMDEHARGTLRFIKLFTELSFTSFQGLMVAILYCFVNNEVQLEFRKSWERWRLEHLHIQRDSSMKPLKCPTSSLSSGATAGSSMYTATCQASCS

Row | Substance | pEC50 [1] | pEC50 [2] | pEC50 [3] | pEC50 [4] | pEC50 [5] | pEC50 [6] | pEC50 [4, 7] | pEC50 [5, 7] | pEC50 [6, 7]
1 | H-Y[Aib]QGT[αMePhe(2-F)]TSD[4Pal]SI[αMeL]LD[Orn]K([AEEA-γGlu-C18 diacid])AQ[αMe4Pal]EFI[dE][αMeY]LQEGGPSSGAPPPSGS-NH2 [Example 643] | 8.79 | 7.22 | 5.93 | 10.65 | 9.13 | 7.80 | – | – | –
2 | H-Y[Aib]QGT[αMePhe(2-F)]TSDY[αMeS]I[αMeL]LD[Orn]K([AEEA-γGlu-C18 diacid])AQ[Aib][Orn]FI[dE][αMeY]LEEGGPSSGEPPPEEG-NH2 [Example 403] | 7.43 | 7.15 | 6.28 | 10.08 | 9.40 | 8.80 | – | – | –
3 | H-Y[Aib]QGT[αMePhe(2-F)]TSD[4Pal]SI[αMeL]LD[Orn]K([AEEA-γGlu-C18 diacid])AQ[αMe4Pal][Orn]FI[dE][αMeY]LIEGGPSSGEPPPEGTGE-NH2 [Example 680] | 8.98 | 7.54 | 6.59 | 11.00 | 9.61 | 8.70 | – | – | –
4 | H-Y[Aib]QGT[αMePhe(2-F)]TSD[4Pal][αMeS]I[αMeL]LD[Orn]K([AEEA-γGlu-C18 diacid])AQ[αMe4Pal]EFI[dE][αMeY]LVEGGPSSGEPPPGGE-NH2 [Example 1155] | 9.05 | 7.35 | 6.54 | – | – | – | 11.04 | 9.36 | 8.74
5 | H-Y[Aib]QGT[αMePhe(2-F)]TSD[4Pal][αMeS]I[αMeL]LD[Orn]K([γGlu-γGlu-C18 diacid])AQ[αMe4Pal]EFI[dE][αMeY]LIEGGPSSGEPPPSGS-NH2 [Example 715] | 9.29 | 7.71 | 6.90 | 11.19 | 9.57 | 9.00 | – | – | –
6 | H-Y[Aib]QGTFTSD[4Pal]SK[αMeL]LDKK([γGlu-γGlu-C18 diacid])AQ[Aib]AFIEYLIE[Aib]GPSSGAPPPSGSEEE-NH2 [Example 906] | 7.81 | 6.63 | 5.93 | – | – | – | 9.67 | 8.61 | 7.83
7 | [NMeY][Aib]QGTFTSD[4Pal][αMeS]I[αMeL]LD[Orn]K([dE-γGlu-C18 diacid])AQ[αMe4Pal]QFIQ[αMeY]LIE[Aib]GPSSGAPPPSGGGE-NH2 [Example 1135] | 9.06 | 7.20 | 6.85 | – | – | – | 10.90 | 9.13 | 8.75
8 | H-Y[Aib]QGTFTSD[4Pal]S[Orn][αMeL]LDKK([γGlu-γGlu-C18 diacid])AQ[αMe4Pal]AFIE[αMeY]LIEGGPSSGAPPPSGSEE-NH2 [Example 967] | 7.40 | 6.46 | 6.29 | – | – | – | 9.69 | 8.76 | 8.71
9 | H-Y[Aib]QGTFTSDFS[Orn][αMeL]LDKK([AEEA-γGlu-C18 diacid])AQ[Aib]AFIEYLLEGGPSSGAPPPGGE-NH2 [Example 63] | 7.39 | 6.46 | 6.15 | – | – | – | 9.59 | 8.32 | 8.39
10 | H-Y[Aib]QGT[αMePhe(2-F)]TSD[4Pal][αMeS]ILLD[Orn]K([γGlu-γGlu-C18 diacid])AQ[Aib][Orn]FI[dE]YLIEGGPSSGEPPPEGTEEE-NH2 [Example 577] | 8.00 | 7.09 | 6.03 | 9.99 | 9.03 | 8.19 | – | – | –
11 | H-Y[Aib]QGTFTSD[4Pal]SQ[αMeL]LDKK([Glu-γGlu-Glu-C18 diacid])AQ[αMe4Pal]AFIEYLIE[Aib]GPSSGAPPPSGS-NH2 [Example 896] | 7.77 | 6.27 | 5.95 | – | – | – | 9.92 | 8.33 | 7.97
12 | H-Y[Aib]QGTFTSDYSK[αMeL]LDKK([AEEA-γGlu-C20 diacid])AQQAFIQWLIEGGPSSGEPPPSEG-NH2 [Example 314] | 7.18 | 7.00 | 5.99 | – | – | – | 9.46 | 9.56 | 8.43
13 | H-Y[Aib]QGTFTSD[4Pal]SK[αMeL]LDKK([γGlu-γGlu-C18 diacid])AQ[Aib]AFIEYLIE[Aib]GPSSGAPPPSGSEE-NH2 [Example 905] | 7.98 | 6.67 | 5.86 | – | – | – | 9.66 | 8.60 | 7.91
14 | H-Y[Aib]QGTFTSDFSK[αMeL]LDKK([AEEA-γGlu-C20 diacid])AQ[Aib]AFIEYLLAGGPSSGAPPPSGS-NH2 [Example 14] | 7.46 | 6.63 | 5.85 | – | – | – | 9.77 | 8.78 | 8.14
15 | H-Y[Aib]QGTFTSDFS[Orn][αMeL]LDKK([AEEA-AEEA-γGlu-C18 diacid])AQ[Aib]AFIEYLLE[dA]GPSSGEPPPSGT-NH2 [Example 156] | 7.59 | 6.16 | 5.82 | – | – | – | 9.68 | 8.47 | 8.44
16 | H-Y[Aib]QGT[αMePhe(2-F)]TSD[4Pal][αMeS]I[αMeL]LD[Orn]K([γGlu-Glu-C18 diacid])AQ[Aib][Orn]FI[dE][αMeY]LSEGGPSSGEPPPSGTEE-NH2 [Example 566] | 7.52 | 6.60 | 5.75 | 9.86 | 8.89 | 8.14 | – | – | –
17 | Y[Aib]QGTFTSD[4Pal]SQ[αMeL]LDKK([dE-γGlu-C18 diacid])AQ[αMe4Pal]AFIEYLIE[Aib]GPSSGAPPPSGSEE-NH2 [Example 928] | 7.82 | 6.22 | 5.96 | – | – | – | 10.05 | 8.45 | 8.16
18 | Y[Aib]QGT[αMePhe(2-F)]TSDYSILLDAQAAK([AEEA-γGlu-C20 diacid])EFIEYLIEGGPSSGEPPPSEG-NH2 [Example 351] | 7.24 | 6.57 | 5.61 | – | – | – | 9.61 | 9.17 | 7.92
19 | H-Y[Aib]QGTFTSDFSK[αMeL]LDKK([AEEA-γGlu-C18 diacid])AQ[Aib]AFIEYLLEGGPSSGAPPPSEG[AEEA]-NH2 [Example 56] | 7.52 | 6.78 | 6.58 | – | – | – | 9.50 | 8.39 | 8.55
